Reference: US6737383B1, “Herbicidal oxadiazolidines” (priority 1999, dated 2004)

Assays:
rice = test: Test B flood test rice; format: in vivo, Oryza sativa; conditions: Pre-emergence
Procedure, shortened: (§1)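 Flood test on plants grown to the 2-leaf stage; treated plants kept in greenhouse twelve to sixteen days, then visually rated against controls on a 0 (no effect) to 10 (complete control) scale.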

purple nutsedge = test: Test B pre/postemergence purple nutsedge; format: in vivo, Cyperus rotundus; conditions: for Nutsedge plant response rating: scale of 0 to 10 where 0 is no effect and 10 is complete control
Procedure, shortened: (§2)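 Response is a visual 0-to-10 score relative to untreated plants, where 0 means no effect and 10 means complete control, taken twelve to sixteen days after application. Treatments went onto soil at planting and onto foliage of 1- to 4-leaf plants, using a surfactant-containing non-phytotoxic solvent.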

pigweed = test: Test B pre/postemergence pigweed; format: in vivo, Amaranthus retroflexus; conditions: for Redroot pigweed plant response rating: scale of 0 to 10 where 0 is no effect and 10 is complete control
Procedure, shortened: as §2

soybean = test: Test B pre/postemergence soybean; format: in vivo, Glycine max; conditions: for Soybean plant response rating: scale of 0 to 10 where 0 is no effect and 10 is complete control
Procedure, shortened: as §2

wild oat = test: Test B pre/postemergence wild oat; format: in vivo, Avena fatua; conditions: for Wild oats plant response rating: scale of 0 to 10 where 0 is no effect and 10 is complete control
Procedure, shortened: as §2

smallflower flatsedge = test: Test B flood test smallflower flatsedge; format: in vivo, Cyperus difformis; conditions: Pre-emergence
Procedure, shortened: as §1

sugar beet = test: Test B pre/postemergence sugar beet; format: in vivo, Beta vulgaris; conditions: for Sugarbeets plant response rating: scale of 0 to 10 where 0 is no effect and 10 is complete control
Procedure, shortened: as §2

velvetleaf = test: Test B pre/postemergence velvetleaf; format: in vivo, Abutilon theophrasti; conditions: for Velvetleaf plant response rating: scale of 0 to 10 where 0 is no effect and 10 is complete control
Procedure, shortened: as §2

wheat = test: Test B pre/postemergence wheat; format: in vivo, Triticum aestivum; conditions: for Wheat plant response rating: scale of 0 to 10 where 0 is no effect and 10 is complete control
Procedure, shortened: as §2

blackgrass = test: Test B pre/postemergence blackgrass; format: in vivo, Alopecurus myosuroides
Procedure, shortened: as §2

duck salad = test: Test B flood test duck salad; format: in vivo, Heteranthera limosa; conditions: Pre-emergence
Procedure, shortened: as §1

rape = test: Test B pre/postemergence rape; format: in vivo, Brassica napus; conditions: for Rape plant response rating: scale of 0 to 10 where 0 is no effect and 10 is complete control
Procedure, shortened: as §2

corn = test: Test B pre/postemergence corn; format: in vivo, Zea mays; conditions: for Corn plant response rating: scale of 0 to 10 where 0 is no effect and 10 is complete control
Procedure, shortened: as §2

bedstraw = test: Test B pre/postemergence bedstraw; format: in vivo, Galium aparine; conditions: Preemergence
Procedure, shortened: as §2

crabgrass = test: Test B pre/postemergence crabgrass; format: in vivo, Digitaria sanguinalis; conditions: for Crabgrass plant response rating: scale of 0 to 10 where 0 is no effect and 10 is complete control
Procedure, shortened: as §2

surinam grass = test: Test B pre/postemergence surinam grass; format: in vivo, Brachiaria decumbens
Procedure, shortened: as §2

[1] = Rate 62 g/ha, flood test species, visual evaluation after twelve to sixteen days
[2] = Rate 125 g/ha, flood test species, scale 0 to 10 where 0 is no effect and 10 is complete control
[3] = Rate 250 g/ha, flood-test species, scale 0 to 10, 0 is no effect, 10 is complete control
[4] = Rate 500 g/ha, flood test species, scale 0 to 10 (0 no effect, 10 complete control)
[5] = Postemergence, Rate 125 g/ha, scale 0 to 10, 0 is no effect, 10 is complete control
[6] = Preemergence, Rate 62 g/ha, scale 0 to 10 (0 no effect, 10 complete control)
[7] = Rate 500 g/ha, Postemergence, scale 0 to 10, 0 no effect, 10 complete control
[8] = Preemergence, Rate 250 g/ha, scale of 0 to 10 where 0 is no effect and 10 is complete control
[9] = Preemergence, Rate 500 g/ha, scale of 0 to 10 where 0 is no effect and 10 is complete control
[10] = Rate 62 g/ha, Postemergence, scale of 0 to 10 where 0 is no effect and 10 is complete control
[11] = Rate 250 g/ha, Postemergence, scale of 0 to 10 where 0 is no effect and 10 is complete control

For CCC(CC)n1c(=O)on(C(=O)N(c2ccc(F)cc2F)C(C)C)c1=O [Compound 353], the “Plant response rating, Rice (0 to 10 scale, 0 is no effect, 10 is complete control)” value (rice; [1]) was 0, the “Rice plant response rating” value (rice; [2]) was 0 and the “Rice plant response rating” value (rice; [3]) was 0. For the same compound, the “Rice plant response rating” value (rice; [4]) was 4, the “Plant response rating, Nutsedge” value (purple nutsedge; [5]) was 0 and the “Plant response rating, Nutsedge” value (purple nutsedge; [6]) was 0. For the same compound, the “Nutsedge plant response rating (0 to 10 scale)” value (purple nutsedge; Preemergence, Rate 125 g/ha) was 0, the “Nutsedge plant response rating” value (purple nutsedge; Preemergence, Rate 250 g/ha) was 0 and the “Nutsedge plant response rating” value (purple nutsedge; Preemergence, Rate 500 g/ha) was 0. The “Nutsedge plant response rating” value (purple nutsedge; Rate 62 g/ha, Postemergence) was 0, the “Plant response rating, Nutsedge” value (purple nutsedge; [7]) was 0 and the “Plant response rating, Redroot pigweed” value (pigweed; [5]) was 3. The “Plant response rating, Redroot pigweed” value (pigweed; [6]) was 7, the “Redroot pigweed plant response rating (0 to 10 scale)” value (pigweed; Preemergence, Rate 125 g/ha) was 10 and the “Redroot pigweed plant response rating” value (pigweed; Preemergence, Rate 250 g/ha) was 10. The “Redroot pigweed plant response rating” value (pigweed; Preemergence, Rate 500 g/ha) was 10, the “Redroot pigweed plant response rating” value (pigweed; Rate 62 g/ha, Postemergence) was 2 and the “Plant response rating, Redroot pigweed” value (pigweed; [7]) was 6. For the same compound, the “Plant response rating, Soybean” value (soybean; [5]) was 4, the “Plant response rating, Soybean” value (soybean; [6]) was 0 and the “Soybean plant response rating (0 to 10 scale)” value (soybean; Preemergence, Rate 125 g/ha) was 0. The “Soybean plant response rating” value (soybean; Preemergence, Rate 250 g/ha) was 0, the “Soybean plant response rating” value (soybean; Preemergence, Rate 500 g/ha) was 0 and the “Soybean plant response rating” value (soybean; Rate 62 g/ha, Postemergence) was 4. The “Plant response rating, Soybean” value (soybean; [7]) was 6, the “Plant response rating, Wild oats” value (wild oat; [5]) was 0 and the “Plant response rating, Wild oats” value (wild oat; [6]) was 0. The “Wild oats plant response rating (0 to 10 scale)” value (wild oat; Preemergence, Rate 125 g/ha) was 1, the “Wild oats plant response rating” value (wild oat; Preemergence, Rate 250 g/ha) was 4 and the “Wild oats plant response rating” value (wild oat; Preemergence, Rate 500 g/ha) was 6. The “Wild oats plant response rating” value (wild oat; Rate 62 g/ha, Postemergence) was 0, the “Plant response rating, Wild oats” value (wild oat; [7]) was 2 and the “Plant response rating, S. Flatsedge (0 to 10 scale, 0 is no effect, 10 is complete control)” value (smallflower flatsedge; [1]) was 0. The “S. Flatsedge plant response rating” value (smallflower flatsedge; [2]) was 2, the “S. Flatsedge plant response rating” value (smallflower flatsedge; [3]) was 2 and the “S. Flatsedge plant response rating” value (smallflower flatsedge; [4]) was 7. The “Plant response rating, Sugarbeets” value (sugar beet; [5]) was 0, the “Plant response rating, Sugarbeets” value (sugar beet; [6]) was 0 and the “Sugarbeets plant response rating (0 to 10 scale)” value (sugar beet; Preemergence, Rate 125 g/ha) was 2. For the same compound, the “Sugarbeets plant response rating” value (sugar beet; Preemergence, Rate 250 g/ha) was 2, the “Sugarbeets plant response rating” value (sugar beet; Preemergence, Rate 500 g/ha) was 4 and the “Sugarbeets plant response rating” value (sugar beet; Rate 62 g/ha, Postemergence) was 0. For the same compound, the “Plant response rating, Sugarbeets” value (sugar beet; [7]) was 6, the “Plant response rating, Velvetleaf” value (velvetleaf; [5]) was 0 and the “Plant response rating, Velvetleaf” value (velvetleaf; [6]) was 0. The “Velvetleaf plant response rating (0 to 10 scale)” value (velvetleaf; Preemergence, Rate 125 g/ha) was 1, the “Velvetleaf plant response rating” value (velvetleaf; Preemergence, Rate 250 g/ha) was 4 and the “Velvetleaf plant response rating” value (velvetleaf; Preemergence, Rate 500 g/ha) was 6. The “Velvetleaf plant response rating” value (velvetleaf; Rate 62 g/ha, Postemergence) was 0, the “Plant response rating, Velvetleaf” value (velvetleaf; [7]) was 2 and the “Plant response rating, Wheat” value (wheat; [5]) was 0. The “Plant response rating, Wheat” value (wheat; [6]) was 0, the “Wheat plant response rating (0 to 10 scale)” value (wheat; Preemergence, Rate 125 g/ha) was 0 and the “Wheat plant response rating” value (wheat; Preemergence, Rate 250 g/ha) was 2. For the same compound, the “Wheat plant response rating” value (wheat; Preemergence, Rate 500 g/ha) was 2, the “Wheat plant response rating” value (wheat; Rate 62 g/ha, Postemergence) was 0 and the “Plant response rating, Wheat” value (wheat; [7]) was 0. For the same compound, the “Plant response rating, Blackgrass” value (blackgrass; [5]) was 4, the “Plant response rating, Blackgrass” value (blackgrass; [6]) was 2 and the “Blackgrass plant response rating” value (blackgrass; [8]) was 7. The “Blackgrass plant response rating” value (blackgrass; [9]) was 8, the “Blackgrass plant response rating” value (blackgrass; [10]) was 0 and the “Plant response rating, Blackgrass” value (blackgrass; [11]) was 4. For the same compound, the “Plant response rating, Blackgrass” value (blackgrass; [7]) was 9, the “Plant response rating, Ducksalad (0 to 10 scale, 0 is no effect, 10 is complete control)” value (duck salad; [1]) was 0 and the “Ducksalad plant response rating” value (duck salad; [2]) was 0. For the same compound, the “Ducksalad plant response rating” value (duck salad; [3]) was 0, the “Ducksalad plant response rating” value (duck salad; [4]) was 0 and the “Plant response rating, Rape” value (rape; [5]) was 2. For the same compound, the “Plant response rating, Rape” value (rape; [6]) was 0, the “Rape plant response rating (0 to 10 scale)” value (rape; Preemergence, Rate 125 g/ha) was 0 and the “Rape plant response rating” value (rape; Preemergence, Rate 250 g/ha) was 1. For the same compound, the “Rape plant response rating” value (rape; Preemergence, Rate 500 g/ha) was 5, the “Rape plant response rating” value (rape; Rate 62 g/ha, Postemergence) was 2 and the “Plant response rating, Rape” value (rape; [7]) was 4. The “Plant response rating, Corn” value (corn; [5]) was 0, the “Plant response rating, Corn” value (corn; [6]) was 0 and the “Corn plant response rating (0 to 10 scale)” value (corn; Preemergence, Rate 125 g/ha) was 3. The “Corn plant response rating” value (corn; Preemergence, Rate 250 g/ha) was 3, the “Corn plant response rating” value (corn; Preemergence, Rate 500 g/ha) was 7 and the “Corn plant response rating” value (corn; Rate 62 g/ha, Postemergence) was 0. For the same compound, the “Plant response rating, Corn” value (corn; [7]) was 0, the “Plant response rating, Bedstraw” value (bedstraw; Rate 62 g/ha, scale 0 to 10 (0 no effect, 10 complete control)) was 0 and the “Bedstraw plant response rating (0 to 10 scale)” value (bedstraw; Rate 125 g/ha) was 0. The “Bedstraw plant response rating” value (bedstraw; Rate 500 g/ha, scale of 0 to 10 where 0 is no effect and 10 is complete control) was 3, the “Plant response rating, Crabgrass” value (crabgrass; [5]) was 0 and the “Plant response rating, Crabgrass” value (crabgrass; [6]) was 7. For the same compound, the “Crabgrass plant response rating (0 to 10 scale)” value (crabgrass; Preemergence, Rate 125 g/ha) was 9, the “Crabgrass plant response rating” value (crabgrass; Preemergence, Rate 250 g/ha) was 10 and the “Crabgrass plant response rating” value (crabgrass; Preemergence, Rate 500 g/ha) was 10. The “Crabgrass plant response rating” value (crabgrass; Rate 62 g/ha, Postemergence) was 0, the “Plant response rating, Crabgrass” value (crabgrass; [7]) was 3 and the “Plant response rating, B. signalgrass” value (surinam grass; [5]) was 0. The “Plant response rating, B. signalgrass” value (surinam grass; [6]) was 0, the “B. signalgrass plant response rating (0 to 10 scale, 0 is no effect, 10 is complete control)” value (surinam grass; Preemergence, Rate 125 g/ha) was 2 and the “B. signalgrass plant response rating” value (surinam grass; [8]) was 5. For the same compound, the “B. signalgrass plant response rating” value (surinam grass; [9]) was 5, the “B. signalgrass plant response rating” value (surinam grass; [10]) was 0 and the “Plant response rating, B. signalgrass” value (surinam grass; [11]) was 0. The “Plant response rating, B. signalgrass” value (surinam grass; [7]) was 0.
